Experimental data as given in ChEMBL document CHEMBL1201862, “PubChem BioAssay data set” (2004).
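Cells were grown in 96-well plates and exposed to each compound for 48 hours at five concentrations; endpoints were interpolated linearly between bracketing concentrations, or set to the highest concentration if not reached. GI50 marks 50% less growth.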 Active and inactive are the calls of the source. No stated cut-off is given here; in the data, active = GI50 up to about 1.1 µM and inactive = higher.

What was measured:
Assay in all cases: NCI tumour cell line growth inhibition, 48 h
UO-31 = test system: UO-31
U-251 = test system: U-251
SK-MEL-2 = test system: SK-MEL-2
Malme-3M = test system: Malme-3M
NCI-H460 = test system: NCI-H460
HCT-15 = test system: HCT-15
DMS-114 = test system: DMS-114
ACHN = test system: ACHN
HOP-62 = test system: HOP-62
K562 = test system: K562
EKVX = test system: EKVX
SF-268 = test system: SF-268
SN12C = test system: SN12C
COLO 205 = test system: COLO 205
NCI-H522 = test system: NCI-H522
MOLT-4 = test system: MOLT-4

Row | Structure (SMILES) | GI50 (UO-31) | GI50 (U-251) | GI50 (SK-MEL-2) | GI50 (Malme-3M) | GI50 (NCI-H460) | GI50 (HCT-15) | GI50 (DMS-114) | GI50 (ACHN) | GI50 (HOP-62) | GI50 (K562) | GI50 (EKVX) | GI50 (SF-268) | GI50 (SN12C) | GI50 (COLO 205) | GI50 (NCI-H522) | GI50 (MOLT-4)
1 | CCC1CN2CCc3cc(OC)c(OC)cc3C2CC1CC1c2cc(OC)c(OC)cc2CCN1C(=O)C1CCCN1C(=O)OCc1ccccc1 (stereo not given) | 12.7 µM (inactive) | 15 µM (inactive) | 17.2 µM (inactive) | 18.3 µM (inactive) | 15.5 µM (inactive) | 16.2 µM | 13.9 µM (inactive) | 17.7 µM (inactive) | 16.2 µM (inactive) | 16.2 µM (inactive) | 22.7 µM (inactive) | 17.1 µM (inactive) | 16.3 µM (inactive) |  |  | 
2 | CC(O)c1ccc(C(O)/C(=N\NC(=O)c2ccncc2)c2nc3ccc([N+](=O)[O-])cc3nc2O)cc1 (stereo not given) | > 100 µM (inactive) | > 100 µM (inactive) |  | > 100 µM (inactive) | > 100 µM (inactive) | 34.8 µM | 16.7 µM (inactive) | 42.4 µM (inactive) | > 100 µM (inactive) | 40.8 µM (inactive) |  | > 100 µM (inactive) | > 100 µM (inactive) | > 100 µM (inactive) | 19.8 µM (inactive) | > 100 µM (inactive)
3 | CCOc1ccccc1NC(=O)C(=O)CC(=O)c1sc(Nc2nnc(-c3ccc(Cl)c(Cl)c3)o2)nc1C | > 100 µM (inactive) | 18.8 µM (inactive) | > 100 µM (inactive) | > 100 µM (inactive) | 51.8 µM (inactive) | > 100 µM | > 100 µM (inactive) | > 100 µM (inactive) | > 100 µM (inactive) | > 100 µM (inactive) | > 100 µM (inactive) | > 100 µM (inactive) | > 100 µM (inactive) | > 100 µM (inactive) |  | > 100 µM (inactive)
4 | O=C1c2ccccc2C2(O)c3cc4ccccc4cc3OC12O (stereo not given) |  | 54.7 µM (inactive) | 47.3 µM (inactive) | 47.1 µM (inactive) | 76.7 µM (inactive) | 53.2 µM | 25.1 µM (inactive) | 97.3 µM (inactive) | 83.8 µM (inactive) | 46 µM (inactive) | 41.7 µM (inactive) | 87.7 µM (inactive) | 92.5 µM (inactive) | > 100 µM (inactive) | 40.9 µM (inactive) | 37.7 µM (inactive)
5 | CC(=O)NN1C(=O)C(Cc2ccccc2)c2ccccc21 (stereo not given) | > 100 µM (inactive) | > 100 µM (inactive) | > 100 µM (inactive) | > 100 µM (inactive) | > 100 µM (inactive) | > 100 µM | > 100 µM (inactive) | > 100 µM (inactive) | > 100 µM (inactive) | > 100 µM (inactive) | > 100 µM (inactive) | > 100 µM (inactive) | > 100 µM (inactive) | > 100 µM (inactive) |  | > 100 µM (inactive)
6 | CC(=O)O[C@H]1CCC2[C@@H]3CCC4C(=O)c5oncc5C[C@]4(C)C3CC[C@@]21C (stereo not given in full) | > 10 µM (inactive) | > 100 µM (inactive) | > 100 µM (inactive) | > 100 µM (inactive) | > 100 µM (inactive) | > 100 µM | > 100 µM (inactive) | 63 µM (inactive) | > 100 µM (inactive) | > 100 µM (inactive) | 22.4 µM (inactive) | > 100 µM (inactive) | > 100 µM (inactive) | > 100 µM (inactive) |  | > 100 µM (inactive)
7 | COc1ccc(OC)c(NC(=O)C(=O)CC(=O)c2sc(-n3nc(-c4ccccc4)cc3-c3ccccc3)nc2C)c1 | > 100 µM (inactive) | > 100 µM (inactive) | > 100 µM (inactive) | > 100 µM (inactive) | > 100 µM (inactive) | > 100 µM | > 100 µM (inactive) |  | > 100 µM (inactive) | > 100 µM (inactive) |  |  | > 100 µM (inactive) | > 100 µM (inactive) | > 100 µM (inactive) | > 100 µM (inactive)
